From US20250161307A1, “PYRAZOLOPYRIMIDINES AS MODULATORS OF SPERMINE OXIDASE” (Janssen Pharmaceutica NV, priority 2022, published 2025)

What was measured:
[1] = animal cancer models; cited from earlier work
[2] = associated disease models; cited from earlier work
SMOX [3] = target: T1, SMOX (Homo sapiens (Human), UniProt Q9NWM0); test: Human SMOX assay (HyPerBlu chemiluminescent detection of hydrogen peroxide); type: biochemical; conditions: 2.5 nM full length hSMOX, spermine substrate, 1 h at room temperature, luminescence read; read-out: SMOx_IC50
How it was run: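 Full-length N-His human SMOX (2.5 nM, E. coli-expressed) was incubated 1 h at room temperature with 30 µM spermine, 11-point compound dilutions and 1.25% DMSO in pH 7.4 HEPES/NaCl/EGTA buffer. H2O2 was detected by HyPerBlu chemiluminescence after 30 min, and IC50 came from dose–response fits.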

hPAOX = hPAOX (Homo sapiens (Human), UniProt Q6QHF9); test: Human PAOX assay (HyPerBlu chemiluminescent detection of hydrogen peroxide); type: biochemical; conditions: 60 pM recombinant PAOX, 20 μM N-acetylspermine substrate
How it was run: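 His-tagged recombinant PAOX expressed in sf9 insect cells was used at 60 pM, with 20 μM N-acetylspermine as substrate. Hydrogen peroxide formed by the reaction was detected by chemiluminescence from a boronate probe (HyPerBlu). Inhibition appears as lower luminescence.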

SMOX [4] = target: T1, SMOX; test: Cellular Thermal Shift Assay (CETSA) with alphaLISA detection of intact SMOX in A549 cells; type: cell-based; conditions: 1 hour compound incubation at 37° C., heated to 55° C. for 5 minutes
From the text: The Cellular Thermal Shift Assay (CETSA) is a biophysical assay based on the principle of ligand-induced thermal stabilization of target proteins, meaning that a protein denaturing temperature will change upon ligand interaction. Thus, by heating samples (i.e. cells, ex vivo samples) to different temperatures, and quantifying conformationally intact proteins we can detect compound-protein interactions after compound treatment. CETSA allows direct monitoring of ligand binding to a specific target (target engagement). In our study, we have developed a suitable detection system that will detect intact SMOX using the alphaLISA. […] The detection of compound -SMOX ligand binding is performed using A549 cells. This adenocarcinoma human alveolar basal epithelial cell line expresses high levels of SMOX. Their use has been widely reported in the literature with respect to the investigation of the SMOX pathway. Using SMOX high-expressing cells with CETSA and alphaLISA systems provides the optimal platform for screening small molecules for SMOX inhibition.
A549 cells were seeded at a density of 0.05-0.1×10^6 cells/mL in T175 flasks and cultured in 25 mL of culture medium consisting in RPMI 1640 medium (Gibco) supplemented with 10% fetal bovine serum (Gibco). Cells were passaged twice per week and used for CETSA assays before reaching confluency. One day prior to the CETSA cells were seeded in 384-well white assay plates (Corning) at 15000 cells per well. Briefly, cells were washed with PBS (Life Technologies Europe BV) and dissociated by adding 2 mL TrypLE™ Select (Life Technologies Europe BV). After 5 min at 37° C., cells were resuspended in culture medium, counted using a ViCell XR cell counter (ViCell) and seeded in the 384-well plates.
Compounds were pre-diluted in PBS to a final concentration of […] and 1% DMSO and serially diluted in PBS 1% DMSO. For compound-cell incubation, medium in the 384 well plates was replaced with 30 μL of serially diluted compounds. After incubation at 37° C. for 1 hour the liquid was removed and plates were heated to 55° C. for 5 minutes and then transferred to ice for 5 minutes. After the cooling step, cells were lysed by adding 15 μL 1× alphaLISA-buffer (Perkin Elmer) containing anti-SMOX monoclonal antibody #2 and anti-SMOX Fab-fragment #33 mixture at a concentration of 5 and 0.5 nM respectively. After one hour at RT, 5 μL anti-6×His alphaLISA acceptor beads (50 mg/L, AL128C, Perkin Elmer) were added to the wells followed by an additional incubation of one hour at RT. Then 5 μL anti-rabbit IgG alpha donor beads (200 mg/L was added to the wells. After one hour incubation at RT the alpha signal was read using an alpha compatible reader. MDL75257 (M2949, Sigma) was used as positive control for compound-SMOX interaction. Compound-SMOX interaction is detected through the comparison of the high alpha signal of the negative control with the much lower signal of the wells that contain SMOX binding compounds.

T1 sequence (Q9NWM0 whole entry): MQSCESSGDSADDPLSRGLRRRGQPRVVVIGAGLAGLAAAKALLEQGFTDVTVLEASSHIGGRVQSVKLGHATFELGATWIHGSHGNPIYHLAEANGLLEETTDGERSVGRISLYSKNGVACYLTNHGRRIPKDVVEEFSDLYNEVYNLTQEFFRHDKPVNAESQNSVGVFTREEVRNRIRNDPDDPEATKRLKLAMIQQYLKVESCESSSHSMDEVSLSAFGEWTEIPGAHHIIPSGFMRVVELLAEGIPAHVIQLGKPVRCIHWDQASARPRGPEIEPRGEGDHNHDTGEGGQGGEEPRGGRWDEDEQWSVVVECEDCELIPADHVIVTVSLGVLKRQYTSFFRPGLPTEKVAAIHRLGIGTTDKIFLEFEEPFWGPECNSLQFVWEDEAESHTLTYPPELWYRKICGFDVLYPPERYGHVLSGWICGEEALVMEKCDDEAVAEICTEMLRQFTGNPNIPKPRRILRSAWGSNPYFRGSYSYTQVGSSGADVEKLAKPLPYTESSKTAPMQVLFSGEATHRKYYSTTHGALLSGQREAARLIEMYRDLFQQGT
Chain of hPAOX (Q6QHF9 whole entry): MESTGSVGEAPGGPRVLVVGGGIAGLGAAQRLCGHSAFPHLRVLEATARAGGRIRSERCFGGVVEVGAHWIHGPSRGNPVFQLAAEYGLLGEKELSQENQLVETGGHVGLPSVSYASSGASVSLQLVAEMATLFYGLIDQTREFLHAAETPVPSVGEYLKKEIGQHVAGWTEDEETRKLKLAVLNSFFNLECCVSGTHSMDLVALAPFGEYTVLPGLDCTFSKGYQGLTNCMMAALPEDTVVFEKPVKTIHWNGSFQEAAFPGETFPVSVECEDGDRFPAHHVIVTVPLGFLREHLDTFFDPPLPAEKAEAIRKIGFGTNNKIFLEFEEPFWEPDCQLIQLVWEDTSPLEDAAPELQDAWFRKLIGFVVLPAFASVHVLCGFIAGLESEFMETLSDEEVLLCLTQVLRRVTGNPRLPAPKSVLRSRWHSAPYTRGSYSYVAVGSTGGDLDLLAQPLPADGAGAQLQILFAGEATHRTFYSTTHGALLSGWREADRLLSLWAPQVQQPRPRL

For `C=C=CCNCCCCNCC=C=C.Cl.Cl` [MDL 72527, N^1,N^4-di-2,3-butadienyl-1,4-butanediamine dihydrochloride], the cancer incidence [1] is listed as “significantly reduced cancer incidence” and the “neuronal death and retinal degeneration” value [2] is listed as “reduced neuronal death and retinal degeneration”.
In the case of `Cc1cccc(-c2cc(-c3ccccc3)nc3cc(C(=O)NCCCn4ccnc4)nn23)c1` [Example 81, N-(3-(1H-imidazol-1-yl)propyl)-5-phenyl-7-(m-tolyl)pyrazolo[1,5-a]pyrimidine-2-carboxamide], the IC50 (SMOX [3]) is reported as 122 nM, the IC50 (hPAOX) is reported as 123 nM and the “SMOx % recovery CETSA” value (SMOX [4]) is reported as 0%.
In the case of `CN1CC(NC(=O)c2cc3nc(-c4ccccc4)cc(-c4ccccc4)n3n2)C1` [Example 23, N-(1-Methylazetidin-3-yl)-5,7-diphenylpyrazolo[1,5-a]pyrimidine-2-carboxamide], the IC50 (SMOX [3]) is reported as 49 nM, the IC50 (hPAOX) is reported as 960 nM and the “SMOx % recovery CETSA” value (SMOX [4]) is reported as 52%.
For `CN1CC(NC(=O)c2cc3nc(-c4ccccc4)cc(-c4ccccn4)n3n2)C1` [Example 92, N-(1-methylazetidin-3-yl)-5-phenyl-7-(pyridin-2-yl)pyrazolo[1,5-a]pyrimidine-2-carboxamide], the IC50 (SMOX [3]) was 239 nM, the IC50 (hPAOX) was 520 nM and the “SMOx % recovery CETSA” value (SMOX [4]) was 20%.
